Measured values reported in patent US20260294964A1, “PHARMACEUTICALS CONTAINING CHELATORS WITH STRONG ZN IONS-HOLDING FEATURE FOR THE TREATMENT OF SYMPTOMS AND DISEASES CAUSED BY MICROORGANISMS/DISEASES CAUSED BY TOXINS OR NEUROTOXINS/CANCER/SEVERAL SYNDROMES” (priority 2023, published 2026).
“Also recorded” adds a separate entry of the source. Where two headings read alike, the source gives them in different places.

How the values were obtained:
[1] = system: microorganisms that decompose organic matter (bacteria/fungi); assay: Culture of microorganisms that decompose organic matter; type: cell-based; settings: for concentration in culture medium at which microorganisms multiply strongly: microorganisms that decompose organic matter (bacteria/fungi)
[2] = system: pathogenic microorganisms; assay: Inhibition/killing of pathogenic microorganisms in water with Boraras Micros fish infected from dead fish; type: in vivo
[3] = Metallic Cu suspension test with 1% Na ascorbate (Cu ion complex formation); type: physicochemical; settings: with 0.1% CuCl2; excess 1% Na ascorbate
Description: In an environment containing water in the body of organisms/host bodies (host is animal/human) such as in blood/tissue fluid/alveolar fluid/intracellular fluid . . . ) in conditions where the body is depleted of chelators with [Zn ions/other transition metal ions]-holding (such as the amount of chelators with [Zn ions/other transition metal ions]-holding remains is not significant in the patient's body), Cu ions will attach to [Fe ions in metalloproteins of [host cells/red blood cells/alveolar cells], causing these cells to lose the ability to exchange O2, causing symptoms of acute respiratory failure (not due to lung infection), and this symptom is very dangerous because it can quickly lead to death. Among the bond forces between Cu ions and other metal ions, the bond force of the Cu ion-Fe ion complex is the strongest, can recognize the existence of Cu ion-ion Fe ion complex/Cu ion-Zn ion complex/Cu ion-Mg ion complex/Cu ion-Ca ion complex, and can recognize Cu ion-other metal ion bonds, in which the Cu ion-Fe ion bond is the bond type with the highest magnitude through experiments conducted in water environment (water environment without chelators with [Zn ions/other transition metal ions]-holding) is the environment that simulates the blood environment/alveolar fluid environment of a host with the depletion of these chelators), these experiments were performed by adding an excess amount of 1% Na ascorbate solution to the test tube containing the solution with [0.1 % CuCl2+greater than 0.2% FeCl3]/the test tube containing the solution containing [0.1 % CuCl2+greater than 0.6% ZnCl2]/the test tube containing the solution containing [0.1 % CuCl2+greater than 0.63% MgCl2]/the test tube containing the solution conatining [0 .

[4] = system: Boraras Micros fish; settings: for toxicity / safety to host cells: in words, from fish experiments; for time to death of fish: 300 ppm EDTA disodium, 800 ppm EDTA Na; for death of fish: 1000 ppm Na2 EDTA / 0.5 ppm CuCl2 / [0.3 ppm CuCl2+20 ppm ZnCl2]
[5] = Metallic Cu suspension test with 1% Na ascorbate (Cu ion complex formation); type: physicochemical; settings: 0.1% CuCl2, alone or with several percent of chelator; excess 1% Na ascorbate
[6] = type: physicochemical, animal/human blood; settings: for volume that completely dissolves Zn-blood complex suspension: suspension from 1.4 ml 0.1% ZnCl2 in 100 ml 0.9% NaCl with 1% blood; for amount needed to completely dissolve Zn-blood complex suspension, compared with lysine phosphate/lysine chloride/arginine phosphate/arginine chloride: suspension with 2 ppm ZnCl2
[7] = system: Boraras Micros fish; assay: Protection of Boraras Micros fish from CuCl2 by chelators; type: in vivo; settings: 0.4 ppm CuCl2 + a few ppm to more than 10 ppm of chelator
[8] = system: avian influenza; set-up: species or system chicken; settings: in vivo
[9] = system: sweet taste on the tongue; assay: Loss and recovery of sweet taste after Zn gluconate; type: in vivo, human; settings: for recovery of sweet taste: 5% arginine glutamate / 0.5% triethylenetetramine glutamate, 10 seconds
[10] = system: symptoms such as sore throat/cough/headache; assay: Symptoms generated by ZnCl2 in the throat and their relief; type: in vivo, human; settings: for disappearance of ZnCl2-induced symptoms: few ml of 10% solution, oral
[11] = Voltage of metallic Zn-metallic Cu electrode pair in test tube; type: physicochemical; settings: 0.9% NaCl+0.2 ppm CuCl2+0.4 ppm ZnCl2+0.6 FeCl3
[12] = system: mice; type: in vivo, mouse; settings: fed rat poison pills, normal water (control)
[13] = 10 ppm Ampicillin / 20 ppm Bactrim / 100 ppm triethylenetetramine diethylenetriaminepentaacetate / 300 Mg EDTA / 600 ppm Ca EDTA / combinations as in label
[14] = 20 ppm Ampicillin / 40 ppm Bactrim

CC1(C)S[C@@H]2[C@H](NC(=O)[C@H](N)c3ccccc3)C(=O)N2[C@H]1C(=O)O [Ampicillin, reference compound]
inhibition of proliferation of microorganisms ([1]; 20 ppm Bactrim / 10 ppm Ampicillin, first 36 hours): slightly inhibited
appearance of water after 6 days [2, 13]: cloudy
fish outcome after 6 days [2, 13]: died and all of fishes died
appearance of water after 6 days [2, 14]: cloudy
fish outcome after 6 days [2, 14]: died and all of fishes died

[Ca+2].[Cl-].[Cl-] [CaCl2]
concentration of second metal salt at which metallic Cu suspension will not appear [3]: greater than 0.65%

[Cl][Cu][Cl] [CuCl2]
death of fish in CuCl2 ([4]; 0.4 ppm CuCl2): dying after a few hours
appearance of metallic Cu suspension [5]: metallic Cu suspension will appear

O=C([O-])CN(CCN(CC(=O)O)CC(=O)O)CC(=O)[O-].[K+].[K+] [EDTA dipotassium]
toxicity / safety to host cells [4]: toxic to host cells

O=C([O-])CN(CCN(CC(=O)[O-])CC(=O)O)CC(=O)O.[Na+].[Na+] [EDTA disodium]
time to death of fish [4]: less than 24 hours
death of fish [4]: died within a few hours
death of fish ([4]; listed as 2 Na EDTA): died in a few hours
toxicity / safety to host cells [4]: quite toxic to host cells
toxicity / safety to host cells ([4]; listed as disodium EDTA): highly toxic to healthy cells

[Cl][Fe]([Cl])[Cl] [FeCl3]
volume that completely dissolves Zn-blood complex suspension ([6]; 0.1% solution): 6 mL
concentration of second metal salt at which metallic Cu suspension will not appear [3]: greater than 0.2%

O=C(O)CN(CCN(CC(=O)O)CC(=O)O)CC(=O)O.[Mg] [Mg EDTA, Ethylenediaminetetraacetic acid magnesium]
time after which fish did not die ([4]; 800 ppm EDTA Cu / 3000 ppm EDTA Mg / 12000 ppm EDTA Ca): ≥ 10 days
survival of fish ([4]; 2000 ppm triethylenetetramine diethylnenepentaacetate / 3000 ppm Mg EDTA / 2000 ppm Cu EDTA / 12000 ppm Ca EDTA, mixtures at concentrations in label): lived for many days
volume that completely dissolves Zn-blood complex suspension ([6]; 0.1% solution): 2 mL
amount needed to completely dissolve Zn-blood complex suspension, compared with lysine phosphate/lysine chloride/arginine phosphate/arginine chloride [6]: tens to hundreds of times lower
appearance of metallic Cu suspension [5]: metallic Cu suspension will not appear
appearance of water after 6 days [2, 13]: clear; also recorded: transparent
fish outcome after 6 days [2, 13]: lived; also recorded: did not die
survival of fish in CuCl2 with chelator [7]: will not die after several weeks
state of chickens after 12 hours [8]: stopped the lethargic state and they returned to eating normally

[Cl-].[Cl-].[Mg+2] [MgCl2]
concentration of second metal salt at which metallic Cu suspension will not appear [3]: greater than 0.63%

O=C([O-])c1cc(O)c(O)c(O)c1.[Na+] [Na gallate]
concentration in culture medium at which microorganisms multiply strongly [1]: 5 ppm

CN(C)C1CSSC1 [Nereistoxin]
time to death of fish, toxin alone ([4]; in vivo): 30 min

O=C([O-])[C@H](O)[C@@H](O)[C@H](O)[C@H](O)CO.O=C([O-])[C@H](O)[C@@H](O)[C@H](O)[C@H](O)CO.[Zn+2] [Zn gluconate]
sweet taste sensation after Zn ([9]; chewing and sucking 15 mg tablet, 120 seconds): completely lost

[Cl-].[Cl-].[Zn+2] [ZnCl2]
ZnCl2 concentration above which Zn-blood suspension begins to appear ([6]; 0.01% blood): above 1.5 ppm
ZnCl2 concentration at which suspension appears abundantly ([6]; 0.01% blood): 2 ppm
volume of 0.1% ZnCl2 solution at which Zn-blood complex suspension begins to appear ([6]; 100 ml of 0.9% NaCl with 1% blood): 1.4 mL
concentration in culture medium at which microorganisms multiply strongly [1]: 12 ppm
appearance of symptoms (itchy throat/sore throat/cough/runny nose/body aches/slight fever/headache) ([10]; 2 ml of 0.4% ZnCl2 solution, 120 seconds): appear after a few minutes to a few hours

N=C(N)NCCC[C@H](N)C(=O)O.O=P(O)(O)O [arginine phosphate]
volume that completely dissolves Zn-blood complex suspension ([6]; 10% solution): 2 mL
units of [Zn ions/other transition metal ions] held by one unit of chelator ([6]; synthetic: upper end printed 'more than 200 units'): one unit (or few units)
amount used to sharply reduce the voltage, compared with EDTA Mg/triethylenetetramine glutamate/triethylenetetramine diethylenetriaminepentaacetate [11]: dozens of times greater
survival of fish in CuCl2 with chelator [7]: will not die after several weeks

N=C(N)NCCC[C@H](N)C(=O)O [arginine, reference compound]
appearance of metallic Cu suspension [5]: metallic Cu suspension will not appear

O=C([O-])CC(O)(CC(=O)[O-])C(=O)[O-].[Na+].[Na+].[Na+] [citrate Na, Na citrate]
concentration in culture medium at which microorganisms multiply strongly [1]: 80 ppm

O=c1oc2ccccc2c(O)c1C1CC(c2ccc(OCc3ccc(C(F)(F)F)cc3)cc2)Cc2ccccc21 (stereo not shown) [flocoumafen, reference compound]
time to death of all mice [12]: about 2 days
time to death of fish, toxin alone ([4]; 1.25 ppm flocoumafen / 0.3 ppm Bromadiolone / 0.2 ppm Methylamine Avermectin): 2160 min

NCCCC[C@H](N)C(=O)O.O=P(O)(O)O [lysine phosphate, reference compound]
survival of fish in CuCl2 with chelator [7]: will not die after several weeks

NCCCC[C@H](N)C(=O)O [lysine, reference compound]
appearance of metallic Cu suspension [5]: metallic Cu suspension will not appear

O=C([O-])CC(O)C(=O)[O-].[Na+].[Na+] (stereo not shown) [malate Na, Na malate]
concentration in culture medium at which microorganisms multiply strongly [1]: 80 ppm

O=C([O-])CCC(=O)[O-].[Na+].[Na+] [succinate Na, Na succinate]
concentration in culture medium at which microorganisms multiply strongly [1]: 80 ppm

NCCNCCNCCN [triethylenetetramine, Triethylenetetramine, reference compound]
appearance of metallic Cu suspension [5]: metallic Cu suspension will not appear

Diethylenetriaminepentaacetic acid calcium [Ca DTPA]
toxicity / safety to host cells [4]: highly safe
survival of fish in CuCl2 with chelator [7]: will not die after several weeks

Diethylenetriaminepentaacetic acid magnesium [Mg DTPA]
appearance of metallic Cu suspension [5]: metallic Cu suspension will not appear
survival of fish in CuCl2 with chelator [7]: will not die after several weeks

EDTA Na
time to death of fish [4]: ≤ 24 h

Na tannate Na
concentration in culture medium at which microorganisms multiply strongly [1]: 30 ppm

arginine ascorbate
volume that completely dissolves Zn-blood complex suspension ([6]; concentration of solution not given): 0.7 mL

arginine glutamate
volume that completely dissolves Zn-blood complex suspension ([6]; 10% solution): 1.0 mL
amount used to sharply reduce the voltage, compared with EDTA Mg/triethylenetetramine glutamate/triethylenetetramine diethylenetriaminepentaacetate [11]: dozens of times greater
recovery of sweet taste [9]: fully recovered

pentaethylenehexamine diethylenetriaminepentaacetate
amount needed to completely dissolve Zn-blood complex suspension, compared with lysine phosphate/lysine chloride/arginine phosphate/arginine chloride [6]: tens to hundreds of times lower

tetraethylenepentamine diethylenetriaminepentaacetate
amount needed to completely dissolve Zn-blood complex suspension, compared with lysine phosphate/lysine chloride/arginine phosphate/arginine chloride [6]: tens to hundreds of times lower

triethylenetetramine ascorbate
disappearance of ZnCl2-induced symptoms [10]: gradually disappear after a few hours

triethylenetetramine gluconate
amount needed to completely dissolve Zn-blood complex suspension, compared with lysine phosphate/lysine chloride/arginine phosphate/arginine chloride [6]: tens to hundreds of times lower

triethylenetetramine glutamate
appearance of metallic Cu suspension [5]: metallic Cu suspension will not appear
disappearance of ZnCl2-induced symptoms [10]: gradually disappear after a few hours
recovery of sweet taste [9]: fully recovered
